Reference: article PMC7353089, “The Hepatotoxicity of Alantolactone and Germacrone: Their Influence on Cholesterol and Lipid Metabolism in Differentiated HepaRG Cells” (Nutrients, 2020)

Experiments:
Assay type in all cases: cell-based, human
Conditions in all cases: multiple exposure: four applications every 24 h, analyzed 12 h after the last; 30 μM ATL, 100 μM GER, 20 μM LOV
HMGCR mRNA = experiment: RT-qPCR mRNA expression in dHepaRG cells
Description: The mRNA and protein expression changes were measured after a single administration of ALA and GER. Three concentrations were selected for each compound (non-toxic, non-toxic/slightly toxic and toxic). The cholesterol level of the dHepaRG cells was measured after a multiple exposure of the highest non-toxic concentrations of tested compounds. ATL (30 µM) and GER (100 µM) were administered four times every 24 h. The expression changes of genes and proteins related to cholesterol metabolism were measured in both single and multiple exposure experiments.
All treatments were performed in triplicates and every experiment was performed three times. The cells were washed twice with ice cold phosphate-buffered saline (PBS), scrapped and stored at −80 °C until use. Total RNA from cells was isolated using TriReagent according to the manufacturer’s instructions (Biotech, Prague, Czech Republic). The purified RNA was dissolved in 40 µL of diethyl pyrocarbonate (DEPC)-treated water (0.01% DEPC in HPLC water, autoclaved) and stored at −80 °C. The measurement of absorbance at 260 and 280 nm using the NanoDrop ND-1000 UV–VIS Spectrophotometer (Thermo Fisher Scientific, Pardubice, Czech Republic) was used to determine RNA yields and purity. Subsequently, the RNA (4 µg) was treated with 2 U of DNase I (New England Biolabs, Ipswich, MA, USA) in a final volume of 30 µL for 25 min at 37 °C, 1.5 µL of 0.1 M ethylenediaminetetraacetic acid was added and the DNAse was inactivated by heat (5 min at 75 °C). The solution was diluted to a concentration of 0.1 µg/µL. The DNAse treated RNA was stored at −80 °C until further analyses. […] Fluorescence data were recorded at the end of each amplification step. Relative expression levels of the target genes were calculated as fold changes in triplicates for each group using the 2^−ΔΔCt method by normalization to the geometric mean of the Ct values of Sdha and Ywhaz, which were used as reference genes.

HMGCS mRNA = experiment: RT-qPCR mRNA expression in dHepaRG cells
Description: Three concentrations were selected for each compound (non-toxic, non-toxic/slightly toxic and toxic). The cholesterol level of the dHepaRG cells was measured after a multiple exposure of the highest non-toxic concentrations of tested compounds. […] The expression changes of genes and proteins related to cholesterol metabolism were measured in both single and multiple exposure experiments.
All treatments were performed in triplicates and every experiment was performed three times. The cells were washed twice with ice cold phosphate-buffered saline (PBS), scrapped and stored at −80 °C until use. Total RNA from cells was isolated using TriReagent according to the manufacturer’s instructions (Biotech, Prague, Czech Republic). The purified RNA was dissolved in 40 µL of diethyl pyrocarbonate (DEPC)-treated water (0.01% DEPC in HPLC water, autoclaved) and stored at −80 °C. The measurement of absorbance at 260 and 280 nm using the NanoDrop ND-1000 UV–VIS Spectrophotometer (Thermo Fisher Scientific, Pardubice, Czech Republic) was used to determine RNA yields and purity. Subsequently, the RNA (4 µg) was treated with 2 U of DNase I (New England Biolabs, Ipswich, MA, USA) in a final volume of 30 µL for 25 min at 37 °C, 1.5 µL of 0.1 M ethylenediaminetetraacetic acid was added and the DNAse was inactivated by heat (5 min at 75 °C). The solution was diluted to a concentration of 0.1 µg/µL. The DNAse treated RNA was stored at −80 °C until further analyses. The first strand cDNA was synthesized from 800 ng of total RNA and 1 µL of 50 µM random hexamers (Generi Biotech, Hradec Kralove, Czech Republic) using ProtoScript II reverse transcriptase (New England Biolabs, Ipswich, MA, USA). After the initial heat denaturation of total RNA (65 °C for 5 min), 4 µL of 5× ProtoScript II RT Reaction Buffer, 2 µL of 10× dithiothreitol (DTT), 2 µL of deoxynucleotide (dNTP) Mix 5 mM, 3.5 µL of H2O, and 0.5 µL of ProtoScript II 200 U/µL were added and mixed by pipetting. The reactions (20 µL) were incubated for 10 min at 25 °C, for 50 min at 42 °C, and for 5 min at 80 °C. The obtained cDNAs were diluted 1:6 by DEPC water. The qPCR analyses were carried out using QuantStudio 6 Flex (Applied Biosystems, Foster City, CA, USA) with SYBR green I (Xceed qPCR SG Mix, Institute of Applied Biotechnologies, Prague, Czech Republic) detection according to the manufacturer’s protocol. […] Fluorescence data were recorded at the end of each amplification step. Relative expression levels of the target genes were calculated as fold changes in triplicates for each group using the 2^−ΔΔCt method [28] by normalization to the geometric mean of the Ct values of Sdha and Ywhaz, which were used as reference genes.

SREBP-2 (F) = experiment: Western blot protein level in dHepaRG cells
Description: All the treatments were performed in triplicates. Protein concentration was measured using the bicinchoninic acid (BCA) protein assay (Sigma Aldrich, Prague, Czech Republic) according to the manufacturer’s instructions. The proteins were loaded onto a 10% sodium dodecyl sulfate (SDS; w/v)–polyacrylamide gel (with 4% stacking gel) and separated by SDS-PAGE electrophoresis. The proteins were transferred onto a nitrocellulose membrane using wet blot (100 V, 90 min). The membrane blocking was performed in a 5% non-fat dry milk/TRIS-buffered saline-Tween-20 (TBS-T) solution at room temperature for 2 h. Incubation with primary antibodies was accomplished overnight at 10 °C. β-actin was used as housekeeping protein (the list of primary antibodies in Table S2). Afterwards, the membrane was washed with 0.05% TBS-T solution for 6 × 5 min, incubated with respective secondary antibodies conjugated with horseradish peroxidase (bovine anti-rabbit (sc2370, Santa Cruz Biotechnology, Santa Cruz, CA, USA) at room temperature for 1.5 h, and rinsed with TBS-T solution for 6 × 5 min. Visualization of protein bands was carried out using a chemiluminescence kit (GE Healthcare, Buckinghamshire, UK).

CC[C@H](C)C(=O)O[C@H]1C[C@@H](C)C=C2C=C[C@H](C)[C@H](CC[C@@H]3C[C@@H](O)CC(=O)O3)[C@H]21 [LOV, lovastatin, reference compound]
HMGCR mRNA level (HMGCR mRNA): decreased significantly | HMGCS mRNA level (HMGCS mRNA): decreased significantly | SREBP-2 (F) protein level (SREBP-2 (F)): decreased
